# Assay results reported in patent publication US20050054696A1, “Indole compounds and medicinal use thereof” (priority 2001, published 2005).
# Molecular target: T1, recombinant human liver glycogen phosphorylase (HLGPa) (Homo sapiens, UniProt P06737)
# T1 construct: made in house; host or cells: Sf9 insect cells (unpurified cell lysate used as enzyme solution)
# T1 sequence (P06737 1-847): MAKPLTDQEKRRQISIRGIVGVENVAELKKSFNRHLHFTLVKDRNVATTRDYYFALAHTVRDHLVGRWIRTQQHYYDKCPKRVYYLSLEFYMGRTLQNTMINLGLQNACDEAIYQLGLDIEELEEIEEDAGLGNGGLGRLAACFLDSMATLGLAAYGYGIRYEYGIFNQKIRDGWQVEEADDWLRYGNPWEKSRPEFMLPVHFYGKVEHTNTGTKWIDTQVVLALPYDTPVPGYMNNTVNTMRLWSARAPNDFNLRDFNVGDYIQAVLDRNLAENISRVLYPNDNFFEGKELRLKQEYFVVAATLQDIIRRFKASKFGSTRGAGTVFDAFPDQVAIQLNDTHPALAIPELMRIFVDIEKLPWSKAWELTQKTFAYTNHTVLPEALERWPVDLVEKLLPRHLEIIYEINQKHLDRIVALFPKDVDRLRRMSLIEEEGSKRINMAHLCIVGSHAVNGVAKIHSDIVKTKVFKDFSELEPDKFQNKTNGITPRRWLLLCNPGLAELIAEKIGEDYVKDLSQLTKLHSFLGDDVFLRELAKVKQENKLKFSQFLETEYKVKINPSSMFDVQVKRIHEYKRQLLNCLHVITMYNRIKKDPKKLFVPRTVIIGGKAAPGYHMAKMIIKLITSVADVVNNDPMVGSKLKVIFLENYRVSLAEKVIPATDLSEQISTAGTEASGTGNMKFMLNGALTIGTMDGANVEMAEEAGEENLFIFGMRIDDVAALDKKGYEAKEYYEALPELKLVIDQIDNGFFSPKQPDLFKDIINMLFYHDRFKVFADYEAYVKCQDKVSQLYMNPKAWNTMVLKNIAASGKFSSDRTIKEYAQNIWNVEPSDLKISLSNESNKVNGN
# Test: Measurement of liver glycogen phosphorylase activity (enzyme inhibitory activity against HLGPa)
# Type: biochemical
# Conditions: Sf9 cell lysate expressing recombinant enzyme; reverse reaction (glycogen synthesis from G1-P), phosphate by malachite green, 60 min room temperature
# Procedure, shortened: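 Activity was run in the reverse, glycogen-synthesis direction, using Sf9 lysate expressing recombinant human liver glycogen phosphorylase (enzyme solution 80 μg/mL protein, pH 7.0). Substrate solution was Tris pH 7.2 with 1.25 mM glucose-1-phosphate, 2.5 mg/ml glycogen and 7.5 mM glucose, reacted 60 min at room temperature. Released phosphate was measured by malachite green A650, with % inhibition taken against DMSO control and no-enzyme blank.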
row,Compound,IC50 [nM]
1,"Nc1cccc(Cl)c1C(=O)NNC(=O)c1cc2cc(Cl)ccc2[nH]1 [Example 1-55, 2-amino-6-chlorobenzoic acid 2-(5-chloro-1H-indole-2-carbonyl)hydrazide]",87
2,"Cc1ccsc1C(=O)NNC(=O)c1cc2cc(Cl)ccc2[nH]1 [Example 1-89, 3-methylthiophene-2-carboxylic acid 2-(5-chloro-1H-indole-2-carbonyl)hydrazide]",450
3,"N=C(NNC(=O)c1cc2cc(Cl)ccc2[nH]1)c1cccc(F)c1 [Example 1-127, 5-chloro-1H-indole-2-carboxylic acid 2-((3-fluorophenyl)-imino-methyl)hydrazide]",84
4,"Nc1cnccc1C(=O)NNC(=O)c1cc2cc(Cl)ccc2[nH]1 [Example 1-41, 3-aminoisonicotinic acid 2-(5-chloro-1H-indole-2-carbonyl)hydrazide]",310
5,"O=C(NNC(=O)c1ccccc1Cl)c1cc2cc(Cl)ccc2[nH]1 [Example 1-19, 2-chlorobenzoic acid 2-(5-chloro-1H-indole-2-carbonyl)hydrazide]",91
6,"N=C(NNC(=O)c1cc2cc(Cl)ccc2[nH]1)c1cccc(F)c1 [Example 1-132, 5-chloro-1H-indole-2-carboxylic acid 2-((3-fluorophenyl)-imino-methyl)hydrazide]",110
7,"O=C(NNC(=O)c1cc2cc(Cl)ccc2[nH]1)c1ccc(F)cc1 [Example 1-29, 4-fluorobenzoic acid 2-(5-chloro-1H-indole-2-carbonyl)hydrazide]",15
8,"O=C(NNC(=O)c1cc2cc(Cl)ccc2[nH]1)Nc1cccc(Cl)c1 [Example 5-10, 5-chloro-1H-indole-2-carboxylic acid 2-((3-chloroanilino)carbonyl)hydrazide]",> 100
9,"O=C(NNC(=O)c1ccc(Cl)nc1Cl)c1cc2cc(Cl)ccc2[nH]1 [Example 1-79, 2,6-dichloronicotinic acid 2-(5-chloro-1H-indole-2-carbonyl)hydrazide]",83
10,"O=C(NNC(=O)c1cc2cc(Cl)ccc2[nH]1)c1ccc(Cl)cc1 [Example 1-21, 4-chlorobenzoic acid 2-(5-chloro-1H-indole-2-carbonyl)hydrazide]",49
11,"COC(=O)Cn1c(=O)n(NC(=O)c2cc3cc(Cl)ccc3[nH]2)c(=O)c2ccccc21 [Example 2-22, 2-(3-((5-chloro-1H-indole-2-carbonyl)amino)-1,2,3,4-tetrahydro-2,4-dioxoquinazolin-1-yl)acetic acid methyl ester]",31
12,"O=C(NNC(=O)c1cc2cc(Cl)ccc2[nH]1)Nc1ccc(Cl)cc1 [Example 5-11, 5-chloro-1H-indole-2-carboxylic acid 2-((4-chloroanilino)carbonyl)hydrazide]",> 100
13,"Cc1cccc(C(=O)NNC(=O)c2cc3cc(Cl)ccc3[nH]2)c1N [Example 1-99, 2-amino-3-methylbenzoic acid 2-(5-chloro-1H-indole-2-carbonyl)hydrazide]",10
14,"O=C(NNC(=O)c1cc2cc(Cl)ccc2[nH]1)Nc1ccc(F)cc1 [Example 5-7, 5-chloro-1H-indole-2-carboxylic acid 2-((4-fluorophenyl)aminocarbonyl)hydrazide]",88
15,"O=C(NNC(=O)c1cc2cc(Cl)ccc2[nH]1)Nc1ccccc1Cl [Example 5-9, 5-chloro-1H-indole-2-carboxylic acid 2-((2-chloroanilino)carbonyl)hydrazide]",> 100
16,"O=C(Nn1c(=O)[nH]c2ccccc2c1=O)c1cc2cc(F)ccc2[nH]1 [Example 2-11, 5-fluoro-1H-indole-2-carboxylic acid (1,2,3,4-tetrahydro-2,4-dioxoquinazolin-3-yl)amide]",> 100
17,"O=C(NNC(=O)c1sccc1Cl)c1cc2cc(Cl)ccc2[nH]1 [Example 1-86, 3-chlorothiophene-2-carboxylic acid 2-(5-chloro-1H-indole-2-carbonyl)hydrazide]",28
18,"O=C(NNC(=O)c1cc2cc(Cl)ccc2[nH]1)c1cc(F)c(F)c(F)c1 [Example 1-93, 3,4,5-trifluorobenzoic acid 2-(5-chloro-1H-indole-2-carbonyl)hydrazide]",270

row,Compound,IC50 [nM]
1,"O=C(NNC(=O)c1ccccc1O)c1cc2cc(Cl)ccc2[nH]1 [Example 1-3, 2-hydroxybenzoic acid 2-(5-chloro-1H-indole-2-carbonyl)hydrazide]",37
2,"O=C(NN1C(=O)[C@H]2CCCN2C1=O)c1cc2cc(Cl)ccc2[nH]1 [Example 4-8, 5-chloro-1H-indole-2-carboxylic acid ((4R)-1,3-dioxo-perhydropyrrolo[1,2-c]imidazol-2-yl)amide]",> 100
3,"O=C(NN1C(=O)N[C@@H](c2ccc(O)cc2)C1=O)c1cc2cc(Cl)ccc2[nH]1 [Example 4-18, 5-chloro-1H-indole-2-carboxylic acid ((4S)-2,5-dioxo-4-(4-hydroxyphenyl)imidazolidin-1-yl)amide]",75
4,"CN(C)C(=O)Oc1ccccc1C(=O)NNC(=O)c1cc2cc(Cl)ccc2[nH]1 [Example 1-65, 2-(2-(5-chloro-1H-indole-2-carbonyl)hydrazinocarbonyl)phenyl dimethylcarbamate]",> 100
5,"CC(C(=O)NNC(=O)c1cc2cc(Cl)ccc2[nH]1)c1ccccc1 (stereo not drawn) [Example 5-15, 5-chloro-1H-indole-2-carboxylic acid 2-(2-phenylpropanoyl)hydrazide]",63
6,"O=C(NNC(=O)c1ccccc1C(F)(F)F)c1cc2cc(Cl)ccc2[nH]1 [Example 1-32, 2-trifluoromethylbenzoic acid 2-(5-chloro-1H-indole-2-carbonyl)hydrazide]",350
7,"COC(=O)COc1ccccc1C(=O)NNC(=O)c1cc2cc(Cl)ccc2[nH]1 [Example 1-49, 2-(2-(2-(5-chloro-1H-indole-2-carbonyl)hydrazinocarbonyl)phenoxy)acetic acid methyl ester]",150
8,"Cc1ccc2[nH]c(C(=O)NN3C(=O)CCN(c4ccccc4)C3=O)cc2c1 [Example 3-10, 5-methyl-1H-indole-2-carboxylic acid (2,4-dioxo-1-phenyl-perhydropyrimidin-3-yl)amide]",440
9,"O=C(NNC(=O)c1cc2cc(Cl)ccc2[nH]1)c1ccc(-c2nnn[nH]2)cc1 [Example 1-59, 4-(1H-tetrazol-5-yl)benzoic acid 2-(5-chloro-1H-indole-2-carbonyl)hydrazide]",> 100
10,"COc1cccc(C(=O)NNC(=O)c2cc3cc(Cl)ccc3[nH]2)c1 [Example 1-16, 3-methoxybenzoic acid 2-(5-chloro-1H-indole-2-carbonyl)hydrazide]",73
11,"Nc1ccccc1C(=O)NNC(=O)c1cc2cc(Br)ccc2[nH]1 [Example 1-102, 2-aminobenzoic acid 2-(5-bromo-1H-indole-2-carbonyl)hydrazide]",> 100
12,"O=C(NNC(=O)c1cc2cc(Cl)ccc2[nH]1)c1ccc([N+](=O)[O-])cc1 [Example 1-12, 4-nitrobenzoic acid 2-(5-chloro-1H-indole-2-carbonyl)hydrazide]",790
13,"CCc1ccc2[nH]c(C(=O)Nn3c(=O)[nH]c4ccccc4c3=O)cc2c1 [Example 2-25, 5-ethyl-1H-indole-2-carboxylic acid (1,2,3,4-tetrahydro-2,4-dioxoquinazolin-3-yl)amide]",> 100
14,"Cc1ccc(C(=N)NNC(=O)c2cc3cc(Cl)ccc3[nH]2)cc1 [Example 1-129, 5-chloro-1H-indole-2-carboxylic acid 2-(imino-(p-tolyl)-methyl)hydrazide]",59
15,"O=C(NNC(=O)C1(c2ccccc2)CCCC1)c1cc2cc(Cl)ccc2[nH]1 [Example 5-13, 5-chloro-1H-indole-2-carboxylic acid 2-((1-phenylcyclopentane)carbonyl)hydrazide]",410
16,"COC(=O)COc1cccc(C(=O)NNC(=O)c2cc3cc(Cl)ccc3[nH]2)c1 [Example 1-69, 2-(3-(2-(5-chloro-1H-indole-2-carbonyl)hydrazinocarbonyl)phenoxy)acetic acid methyl ester]",150
17,"N=C(NNC(=O)c1cc2cc(Cl)ccc2[nH]1)c1c(F)cccc1F [Example 6-25, 5-chloro-1H-indole-2-carboxylic acid 2-((2,6-difluorophenyl)-imino-methyl)hydrazide methanesulfonate]",330
18,"Cc1cccc(N)c1C(=O)NNC(=O)c1cc2cc(Cl)ccc2[nH]1 [Example 1-98, 2-amino-6-methylbenzoic acid 2-(5-chloro-1H-indole-2-carbonyl)hydrazide]",87
